# Experimental data published in publication PMC6406907, “A H2AX–CARP-1 Interaction Regulates Apoptosis Signaling Following DNA Damage” (Cancers, 2019).
# System: MDA-MB-468 cells
# Test: Comet assay (DNA damage), MDA-MB-468
# Type: cell-based, human
# Parameters: Tail Moment (Mean) / Olive Tail Moment (Mean): unit not given here
# Details: for percentage of tail DNA and tail moment: 10 μM, 1, 3, 6, 12 h, MDA-MB-468; for Tail Moment (Mean) / Olive Tail Moment (Mean) / %Tail DNA (Mean): MDA-MB-468, 10 µM; for Tail Moment (Mean): control 0.031056; for Olive Tail Moment (Mean): control 0.286711; for %Tail DNA (Mean): control 2.39052, alkaline electrophoresis, Vista Green
# Description: The DNA damage assay was performed using a comet assay kit 96-well plate (Cell Bio Labs, CA, USA) as per the manufacturer’s instructions. Briefly, the cell suspension was mixed with the low-melting agarose at 1:20 ratio and added to the pre-coated 96 well plate. The cells were then subjected to lysis for 1 h, followed by alkaline electrophoresis. The plate was then washed in 70% ethanol and Vista Green DNA dye was added. The comets were visualized in Zeiss LSM780 Confocal microscope. The images were processed using Zeiss ZEN lite software and the comet parameters were measured using Open comet software.
# Adriamycin is well known to induce DNA damage. Given the critical role of CARP-1 in apoptotic signaling by Adriamycin and CFM compounds, and the fact that stress-activated protein kinases (SAPKs) p38 and JNKs are activated in apoptosis signaling by CFM-4.16 [6, 12, 13, 14, 15, 16, 17, 18], we next determined whether CFM-4.16 also provoked DNA damage. We treated MDA-MB-468 and HeLa cells with a 10 μM dose of Adriamycin or CFM-4.16 for 1, 3, 6, and 12 h, followed by assessment of damaged DNA by the comet assay as described in Section 2. The presence of comet-like tails that contain the fragmented cellular DNA is a well-known marker/indicator of apoptosis. We measured the comet parameters such as percentage tail DNA and mean tail moment. […] Of note is the fact that Adriamycin and related anthracyclines intercalate between DNA bases and trap topoisomerase II (TopoII) in the double-strand cleavage form, thus introducing double-strand breaks (DSBs) due to TopoII poisoning. It remains to be clarified whether CFM-4.16 also targets cellular DNA and/or the associated DNA repair complex protein(s) to introduce DNA strand breaks, or activates caspase-activated DNAses to breakdown cellular genomic DNA.
# Figure 2 Adriamycin and CFM-4.16 induce DNA damage. Cells were treated with the noted dose of respective compound for indicated time periods. Mean values for percentage tail DNA content (A,C) and Olive tail moment (B,D) for respective cells from control and treatment periods for each compound were measured using software recommended by the manufacturer of the kit for measurement of DNA damage (Cell Bio Labs, CA, USA). The columns in each chart indicate average values for respective treatment condition; bars, SE; * p ≤ 0.05.
# Table S1. Adriamycin and CFM-4.16 stimulate DNA Damage in a time-dependent manner. MDA-MB-468 and HeLa cells were with noted dose of respective compound for indicated time periods.
# Mean values for % tail DNA, Tail moment, and Olive tail moment for respective cells from control and treatment periods for each compound were measured using software recommended by the manufacturer of the kit for measurement of DNA damage (Cell Bio Labs, San Diego, CA, USA). The p values for each of the parameter are indicated below the mean values in each column for the treatment time period with each compound for both the cell lines.
# Adriamycin (10 µM) CFM-4.16 (10 µM)
Structure (SMILES),percentage of tail DNA and tail moment,Tail Moment (Mean) (1 h),Olive Tail Moment (Mean) (1 h),%Tail DNA (Mean) (1 h) [%],Tail Moment (Mean) (3 h),Olive Tail Moment (Mean) (3 h),%Tail DNA (Mean) (3 h) [%],Tail Moment (Mean) (6 h),Olive Tail Moment (Mean) (6 h),%Tail DNA (Mean) (6 h) [%],Tail Moment (Mean) (12 h),Olive Tail Moment (Mean) (12 h),%Tail DNA (Mean) (12 h) [%]
"COc1cccc2c1C(=O)c1c(O)c3c(c(O)c1C2=O)C[C@@](O)(C(=O)CO)C[C@@H]3O[C@H]1C[C@H](N)[C@H](O)[C@H](C)O1 [Adriamycin, doxorubicin, reference compound]",significantly increased,3.462,2.898,18.75,14.01,9.946,25.75,24.19,14.06,45.55,43.07,20.46,63.02
O=C1N(Cc2ccccc2Cl)c2ccccc2C12NN=C(c1cccc(Cl)c1)S2 (centres unmarked) [CFM-4.16],significantly increased,0.1504,0.7773,2.507,7.45,4.594,17.24,25.29,13.06,36.18,45.02,24.23,55.6
